Results on four compounds are retold here after paper PMC12629174, “Exploring Bioactive Metabolites From Fusarium falciforme and Aspergillus terreus Isolated From Protease‐Rich Fruits: Antifungal, Antitrypanosomal, and Enzymatic Inhibitory Activities” (Chemistry & Biodiversity, 2025).

Experiment [1] has as its target T1, papain (Carica papaya, UniProt P00784).
T1 sequence (P00784 134-345): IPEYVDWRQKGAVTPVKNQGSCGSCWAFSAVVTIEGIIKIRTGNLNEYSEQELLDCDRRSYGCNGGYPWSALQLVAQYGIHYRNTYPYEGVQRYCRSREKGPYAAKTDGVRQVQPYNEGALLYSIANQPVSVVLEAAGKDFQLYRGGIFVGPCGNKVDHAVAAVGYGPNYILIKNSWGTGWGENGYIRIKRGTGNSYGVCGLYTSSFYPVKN
The experiment is described as follows: fluorimetric papain assay with ZFR-MCA; titration of papain by the irreversible inhibitor (positive control). The class given is biochemical. The settings on record: read-out: % inhibition at 1 μM (25 nM in the well).

Experiment [2] deals with T1, papain. In words: fluorimetric papain assay with ZFR-MCA substrate. The class given is biochemical.

pIC50: −log10 of the molar value. Read-outs that look alike come from different tables or passages of the source.

Turning to `CC(C)C[C@H](NC(=O)C1OC1C(=O)O)C(=O)NCCCCNC(=N)N` (stereo partly drawn) [E-64, 1‐[L‐N‐(trans‐epoxysuccinyl)leucyl] amino‐4‐guanidinobutane], the inhibition (in general, the share of the control response that was lost under treatment) at 1 µM at papain [1] was 90%.

For the compound `CC(=C\C(=O)O)/C=C(\C)C[C@H](C)CCCC[C@H]1OC(=O)[C@@H]1CO` [compound 1, hymeglusin], at papain [2] (read-out: IC50), the pIC50 (as a rule, −log10 of the IC50, conventionally taken in molar units) was 5.03.

On to `CC(=C\C(=O)O)/C=C(\C)C[C@H](C)CCCC[C@@H](O)C(CO)C(=O)O` (stereo partly shown) [compound 2, fusaridioic acid A], for which the pIC50 on papain [2] (read-out: IC50) was 4.54.

`COC(=O)[C@]1(Cc2ccc(O)c(CC=C(C)C)c2)OC(=O)C(O)=C1c1ccc(O)cc1` [compound 3, butyrolactone I] gave a pIC50 against papain [2] of 5.20.
